Source: PubChem BioAssay (NCI)
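Results reflect a 48-hour exposure of cells in 96-well plates to compound at five concentrations. TGI: total growth inhibition.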

Columns and labels:
Assay in all cases: NCI anticancer screen, dose series, 48 h
HL-60(TB) leukemia = tested on: HL-60(TB) leukemia
COLO 205 colon = tested on: COLO 205 colon
CAKI-1 renal = tested on: CAKI-1 renal
TK-10 renal = tested on: TK-10 renal
UACC-62 melanoma = tested on: UACC-62 melanoma
HS 578T breast = tested on: HS 578T breast
OVCAR-5 ovarian = tested on: OVCAR-5 ovarian
786-0 renal = tested on: 786-0 renal
U251 CNS = tested on: U251 CNS
HT29 colon = tested on: HT29 colon

Row | SMILES | TGI (HL-60(TB) leukemia) | TGI (COLO 205 colon) | TGI (CAKI-1 renal) | TGI (TK-10 renal) | TGI (UACC-62 melanoma) | TGI (HS 578T breast) | TGI (OVCAR-5 ovarian) | TGI (786-0 renal) | TGI (U251 CNS) | TGI (HT29 colon)
1 | CC1=C2C(=O)[C@H]3[C@@H](CC=C4C[C@@H](O)CC[C@@]43C)[C@@H]2CC[C@]12O[C@@H]1C[C@H](C)CN[C@H]1[C@H]2C | > 65.5 µM | > 100 µM | > 59.2 µM | > 53.8 µM | > 92.3 µM | > 100 µM | > 100 µM | > 57.5 µM | > 55.5 µM | > 100 µM
2 | O=[N+]([O-])c1ccc(C2=NOC(c3ccccc3F)N2C23CC4CC(CC(C4)C2)C3)cc1 (configuration not stated) | > 100 µM | > 100 µM | > 100 µM | > 100 µM | > 100 µM | > 100 µM | > 100 µM | > 100 µM | > 100 µM | > 100 µM
3 | COCC1OC(OC2C3=C(C(C)C)CCC3(C)/C=C3\C(CCC3(O)COC)C(C)C2O)C(O)C2OC3OC12OC3(C)C1CO1 (configuration not stated) | 54.1 µM | > 100 µM | 99.7 µM | > 100 µM | > 100 µM | > 100 µM | > 100 µM | > 100 µM | 98.8 µM | > 100 µM
4 | O=C/C(=C(/Br)I)c1ccccc1 | 1.13 µM | 14.3 µM | 4.15 µM | 20.2 µM | 44.4 µM | > 60 µM | 23.6 µM | 5.38 µM | 13.7 µM | 5.29 µM
5 | COc1ccc(N2C(=O)C3ON(C(C(N)=O)c4ccccc4)C(c4ccc(-c5ccccc5)cc4)C3C2=O)cc1 (configuration not stated) | > 50 µM | > 50 µM | > 50 µM | > 50 µM | > 50 µM | > 50 µM | > 50 µM | > 50 µM | > 50 µM | > 50 µM
6 | O=c1cc(N2CCOCC2)[nH]c(=O)n1-c1cccc(C(F)(F)F)c1 | > 100 µM | > 100 µM | > 100 µM | > 100 µM | > 100 µM | > 100 µM | > 100 µM | > 100 µM | > 100 µM | > 100 µM
7 | CC(C)(C)c1nc2c(o1)C(=O)c1ccccc1C2=O | 1.78 µM | 8.86 µM | 6.77 µM | 11.7 µM | 1.58 µM | 4.26 µM | 4.85 µM | 5.51 µM | 4.6 µM | 10.7 µM
8 | CCOC(=O)CCC(NC(=O)c1ccc(Oc2nc3ccc(C(F)(F)F)cc3nc2-c2ccccc2)cc1)C(=O)OCC (configuration not stated) | > 100 µM | > 100 µM | 26.9 µM | > 100 µM | > 100 µM | 9.34 µM | > 100 µM | 32.9 µM | > 100 µM | > 75.2 µM
9 | COc1ccc2nc3cccc([N+](=O)[O-])c3c(NCCO)c2c1 | 0.0943 µM | 0.0146 µM | 0.0706 µM | 0.142 µM | 0.0481 µM | 0.0644 µM | 0.0698 µM | 0.0649 µM | 0.122 µM | 0.125 µM
10 | Cc1cccc2c1Oc1ccccc1C2NC(=O)c1ccc([N+](=O)[O-])cc1 (configuration not stated) | > 100 µM |  | > 100 µM | > 100 µM | > 100 µM | 82.6 µM | > 100 µM | > 100 µM | > 100 µM | > 100 µM
11 | CC1OC(OC2C(O[C@H]3CC[C@@]4(C)[C@@H](CC[C@@H]5[C@@H]4CC[C@]4(C)[C@@H]6[C@H](C[C@@H]54)O[C@]4(CC[C@@H](C)CO4)[C@H]6C)C3)OC(CO)C(OC3OC(CO)C(O)C(OC4OCC(O)C(O)C4O)C3OC3OCC(O)C(O)C3O)C2O)C(O)C(O)C1O (some centres not stated) | 1.01 µM | 1.35 µM | 2.53 µM |  | 1.77 µM | 2.74 µM | 2.42 µM | 3.02 µM | 1.79 µM | 1.71 µM
12 | O=C1Nc2cccc(Cl)c2/C1=C\c1c(Cl)nc2sccn12 | > 100 µM | > 100 µM | > 100 µM | 24.6 µM | > 100 µM | 57.5 µM | > 100 µM | 24.6 µM | 21.5 µM | > 100 µM
13 | CCOc1ccc(/C(O)=C/c2nc3ccccc3nc2/C=C(\O)c2ccc(OCC)cc2)cc1 | > 100 µM | > 100 µM | > 100 µM | > 100 µM | > 100 µM | > 100 µM | > 100 µM | > 100 µM | > 100 µM | > 100 µM
14 | O=P(Oc1ccccc1)(Oc1ccccc1)Oc1c[nH]c2ccccc12 | 44.1 µM | 13.9 µM | 23.4 µM | 28.3 µM | 22 µM | 40.8 µM | 4.56 µM | 33.1 µM | 31.9 µM | 22 µM
15 | C[C@H](Nc1c(O)c2c(c(O)c1Cl)C(=O)C=CC2=O)C(=O)Nc1ccc([N+](=O)[O-])cc1 |  | 2.97 µM | > 10 µM | 3.39 µM | 6.16 µM | > 10 µM | 3.51 µM | 3.23 µM | 6.02 µM | 8.57 µM
16 | O=C1NC(Cc2c[nH]c3ccccc23)C(=O)N2C(C3CCCCC3)c3[nH]c4ccccc4c3C[C@@H]12 (some centres not stated) | 42.9 µM | 34.9 µM | 55.8 µM | 37.6 µM | 34.5 µM | 12.7 µM | 43 µM | 28.5 µM | 26 µM | 29.6 µM
17 | C[C@]12CC[C@@H]3c4cc(OCC(F)(F)F)c(O)cc4C(=O)C[C@H]3[C@@H]1CC[C@@H]2O | 4.68 µM | > 84.5 µM | > 100 µM | > 100 µM | > 100 µM | 43.9 µM | > 85.3 µM | > 100 µM | > 38.8 µM | 38.4 µM
18 | COc1cc(CCCOC(=O)/C=C/c2ccc(O)c(O)c2)cc(O)c1O | 84.1 µM | > 100 µM | > 100 µM | > 100 µM | 85.1 µM | > 100 µM | > 100 µM | > 100 µM | > 100 µM | 98.7 µM
19 | CC(C)(C)N(Cc1ccc2c(c1)OCO2)C(=O)/C=C\S(=O)c1ccccc1 (configuration not stated) | 7.6 µM | 8.75 µM | 15.1 µM | 17 µM | 13.6 µM | 6.36 µM | 25.1 µM | 6.07 µM | 14.9 µM | 12.9 µM
20 | CC(N)C(C)Cc1ccccc1 (configuration not stated) | > 100 µM | > 100 µM | > 100 µM | > 100 µM | > 100 µM | > 100 µM | > 100 µM | > 100 µM | > 100 µM | > 100 µM
